Source: US10278965B2, “Method of detecting cancer stem cell, method of screening cancer stem cell, and method of inhibiting cancer stem cell” (CANON KABUSHIKI KAISHA, priority 2012, dated 2019)

Tests used:
[1] = tested on: Prostatic cancer cells, PC-3; experiment: Cancer cell inhibitory (growth suppressive) action against prostatic cancer cells, CellTiter-Glo viable cell count; assay type: cell-based; settings: PC-3, 10 μg/mL, 24 hours
Experimental: Prostatic cancer cells, PC-3, were pre-cultured in RPMI1640 medium containing 10% FBS at 37° C. in a 5% CO2 ambient. Thereafter, 4,000 cells were seeded per well of a 96-well plate and further cultured for 24 hours. Subsequently, Compound (1) was added to the medium so as to obtain a final concentration of 10 μg/mL and cultured at 37° C. for 24 hours in a 5% CO2 ambient. The cultured cells were analyzed for viable cell count according to Cell Titer-Glo Luminescent Cell Viability Assay (manufactured by Promega KK.).
Viable cell count was analyzed in the same manner as in Experimental Example 24 except that Compound (1) of Experimental Example 24 was changed to each compound shown in Table 2.
Viable cell count was analyzed in the same manner as in Experimental Example 24 except that Compound (1) of Experimental Example 24 was changed to each of Comparative compounds 1 to 4, to obtain growth rates.
Note that the growth rate used in Examples refers to the rate (expressed by percentage) of viable cell count after culture relative to the number of cells at the initiation of cell culture. Evaluation criteria are the same as in the above experiments.

[2] = tested on: Human chronic myelocytic leukemia cells, K562, ALDH (+) fraction (cancer stem cells); experiment: Cancer stem-cell selective inhibitory action against chronic myelocytic leukemia cells, ALDH (+) fraction; assay type: cell-based; settings: 24 hours
Experimental: Human chronic myelocytic leukemia cells, K562, were pre-cultured in RPMI1640 medium containing 10% FBS at 37° C. in a 5% CO2 ambient. Then, a fraction containing 80% or more of cancer stem cells was extracted by use of a cancer stem cell marker, ALDEFLUOR reagent (manufactured by VERITAS Corporation) and FACSAria flow cytometry (manufactured by Nippon Becton, Dickinson and Company). […] The cultured cells were analyzed for viable cell count according to CellTiter-Glo Luminescent Cell Viability Assay (manufactured by Promega KK.). […] Note that hereinafter, an ALDEFLUOR reagent positive fraction (deemed as cancer stem cells) is represented by ALDH (+), whereas an ALDEFLUOR reagent negative fraction (not deemed as cancer stem cells) is represented by ALDH (−), in some cases.
Further, the growth suppressive effect of cancer stem cells was evaluated based on the following criteria. Note that the growth rate in Examples is a value obtained by dividing viable cell count after culture by the number of cells at the initiation time of culture.

[3] = tested on: Human pancreas cancer cells, KLM-1; experiment: Cancer cell inhibitory (growth suppressive) action against pancreatic cancer cells, CellTiter-Glo viable cell count; settings: KLM-1, 10 μg/mL, 24 hours
Experimental: Human pancreas cancer cells, KLM-1, were pre-cultured in RPMI1640 medium containing 10% FBS at 37° C. in a 5% CO2 ambient. Thereafter, 4,000 cells were seeded per well of a 96-well plate and further cultured for 24 hours. […] The cultured cells were analyzed for viable cell count according to CellTiter-Glo Luminescent Cell Viability Assay (manufactured by Promega KK.).
Evaluation of cancer cell inhibition against the pancreatic cancer cells (KLM-1) (growth suppression) was made based on the following criteria. Note that the growth rate used in Examples refers to the rate (expressed by percentage) of viable cell count after culture relative to the number of cells at the initiation of cell culture.

[4] = Measurement of fluorescent property of compound; assay type: physicochemical; settings: 5 μM DMSO solution
Experimental: The excitation wavelength and fluorescence wavelength of the compound were measured by a FL4500 spectrofluorometric measuring machine manufactured by Hitachi High-Technologies Corporation.

Excitation wavelength λex [4] [nm] | Fluorescence wavelength λem [4] [nm] | Structure (SMILES) | Cancer cell growth rate (%) [1] [%] | Evaluation (cancer cell growth rate) [1] | ALDH(+) Superiority evaluation ([2]; K562, 1 μg/ml) | ALDH(+)/ALDH(−) ([2]; K562, 1 μg/ml) | Cancer cell growth rate (%) [3] [%] | Evaluation (cancer cell growth rate) [3] | ALDH(+) Superiority evaluation ([2]; K562, 10 μg/ml) | ALDH(+)/ALDH(−) ([2]; K562, 10 μg/ml)
 |  | O=C(O)CN1/C(=C\C2=C(Cl)C(=C/c3sc4ccccc4[n+]3CC(=O)O)/CCC2)Sc2ccccc21 [Comparative compound 3, reference compound] | 101 | C (Cancer cell growth rate is 50% or more) | C (The value of the growth rate of ALDH (+)/the growth rate of ALDH (−) is 0.95 or more) | 0.79 | 93.0 | C (Cancer cell growth rate is 50% or more) |  | 
563 | 569 | CCC(/C=C1\Sc2ccccc2N1CC)=C\c1sc2ccccc2[n+]1CC.[I-] [Compound 4] | 19.5 | A (Cancer cell growth rate is less than 20%) |  |  | 3.1 | A (Cancer cell growth rate is less than 20%) |  | 
344 | 381 | CCC(=C\c1sc2c3ccccc3ccc2[n+]1CC)/C=C1/Sc2c(ccc3ccccc23)N1CC.[I-] [Compound 7] | 15.3 | A (Cancer cell growth rate is less than 20%) |  |  | 13.0 | A (Cancer cell growth rate is less than 20%) |  | 
586 | 615 | CCC(=C\c1sc2ccc3ccccc3c2[n+]1CC)/C=C1/Sc2ccc3ccccc3c2N1CC [Compound 10] |  |  |  |  | 13.5 | A (Cancer cell growth rate is less than 20%) |  | 
354 | 469 | CCN1/C(=C\C(C)=C\c2sc3c4ccccc4ccc3[n+]2CC)Sc2c1ccc1ccccc21 [Compound 11] | 4.3 | A (Cancer cell growth rate is less than 20%) |  |  | 5.0 | A (Cancer cell growth rate is less than 20%) |  | 
492 | 510 | CCCCCCCN1/C(=C\C=C\c2oc3ccccc3[n+]2CCCCCCC)Oc2ccccc21 [Compound 18] |  |  |  |  |  |  | A (The value of the growth rate of ALDH (+)/the growth rate of ALDH (−) is less than 0.8) | 0.29
 |  | CN1/C(=C\C=C\C2=[N+](C)c3ccc4ccccc4c3C2(C)C)C(C)(C)c2c1ccc1ccccc21 [Compound 20] | 13.1 | A (Cancer cell growth rate is less than 20%) |  |  | 1.2 | A (Cancer cell growth rate is less than 20%) |  | 
589 | 614 | CCN1\C(=C/C=C/C=C/c2oc3ccccc3[n+]2CC)Oc2ccccc21 [Compound 28] |  |  | B (The value of the growth rate of ALDH (+)/the growth rate of ALDH (−) is 0.8 or more and less than 0.95) | 0.83 |  |  | A (The value of the growth rate of ALDH (+)/the growth rate of ALDH (−) is less than 0.8) | 0.69
 |  | CCN1/C(=C/C=C/C=C/C=C/C2=[N+](CC)c3ccccc3C23CCCCC3)C2(CCCCC2)c2ccccc21 [Compound 31] |  |  |  |  | 30.5 | B (Cancer cell growth rate is 20% or more and less than 50%) |  | 
 |  | CCN1/C(=C/C=C/C=C/C=C/C2=[N+](CC)c3ccccc3C2(C)C)C(C)(C)c2ccccc21 [Compound 32] |  |  |  |  |  |  | A (The value of the growth rate of ALDH (+)/the growth rate of ALDH (−) is less than 0.8) | 0.32
650 | 770 | CCOC(=O)C1(C(=O)OCC)CC(/C=C/C2=[N+](CC)c3ccccc3C2(C)C)=CC(=C/C=C2/N(CC)c3ccccc3C2(C)C)/C1 [Compound 37] |  |  |  |  | 4.8 | A (Cancer cell growth rate is less than 20%) |  | 
819 | 825 | CCN1/C(=C/C=C2\CCCC(/C=C/C3=[N+](CC)c4ccc(OC)cc4C3(C)C)=C2Cl)C(C)(C)c2cc(OC)ccc21 [Compound 40] |  |  |  |  | 14.1 | A (Cancer cell growth rate is less than 20%) |  | 
797 | 816 | CCCCN1/C(=C/C=C2\CCCC(/C=C/C3=[N+](CCCC)c4ccccc4C3(C)C)=C2Cl)C(C)(C)c2ccccc21 [Compound 43] | 12.3 | A (Cancer cell growth rate is less than 20%) |  |  | 35.6 | B (Cancer cell growth rate is 20% or more and less than 50%) |  | 
665 | 681 | CCN1C=C/C(=C/C=C/c2ccc3ccccc3[n+]2CC)c2ccccc21.[I-] [Compound 45] |  |  |  |  | 28.5 | B (Cancer cell growth rate is 20% or more and less than 50%) |  | 
679 | 715 | CCN1C=C/C(=C/C=C/c2cc[n+](CC)c3ccccc23)c2ccccc21 [Compound 46] | 17.7 | A (Cancer cell growth rate is less than 20%) |  |  | 16.7 | A (Cancer cell growth rate is less than 20%) |  | 
 |  | CCCC[N+]1=C(/C=C/C2=C(Cl)C(=C/C=C3/N(C)c4ccccc4C3(C)C)/CCC2)C(C)(C)c2c1ccc1ccccc21 [Compound 51] |  |  |  |  |  |  | A (The value of the growth rate of ALDH (+)/the growth rate of ALDH (−) is less than 0.8) | 0.27
774 | 800 | CCCCN1/C(=C/C=C2\CCCC(/C=C/C3=[N+](CCCC)c4ccccc4C3(C)C)=C2c2ccccc2)C(C)(C)c2ccccc21 [Compound 54] |  |  |  |  |  |  | A (The value of the growth rate of ALDH (+)/the growth rate of ALDH (−) is less than 0.8) | 0.50
688 | 715 | CC(C)CCN1/C(=C/C=C/C=C/C2=[N+](CCC(C)C)c3ccc4ccccc4c3C2(C)C)C(C)(C)c2c1ccc1ccccc21 [Compound 55] |  |  |  |  |  |  | A (The value of the growth rate of ALDH (+)/the growth rate of ALDH (−) is less than 0.8) | 0.33
 |  | CCC(/C=C1\Oc2ccccc2N1CC)=C\c1oc2ccccc2[n+]1CC [Compound 56] |  |  |  |  |  |  | A (The value of the growth rate of ALDH (+)/the growth rate of ALDH (−) is less than 0.8) | 0.65
 |  | CCC(=C\c1oc2ccc(-c3ccccc3)cc2[n+]1CC)/C=C1/Oc2ccc(-c3ccccc3)cc2N1CC [Compound 57] |  |  |  |  |  |  | B (The value of the growth rate of ALDH (+)/the growth rate of ALDH (−) is 0.8 or more and less than 0.95) | 0.81
804 | 520 | CN1/C(=C/C=C2\CCCC(/C=C/C3=[N+](C)c4ccccc4C3(C)C)=C2Sc2ccccc2)C(C)(C)c2ccccc21 [Compound 59] |  |  | A (The value of the growth rate of ALDH (+)/the growth rate of ALDH (−) is less than 0.8) | 0.67 |  |  | A (The value of the growth rate of ALDH (+)/the growth rate of ALDH (−) is less than 0.8) | 0.22
670 | 696 | CN1/C(=C/C=C/C=C/C2=[N+](C)c3ccc4ccccc4c3C2(C)C)C(C)(C)c2cc(Cl)ccc21 [Compound 60] |  |  |  |  |  |  | A (The value of the growth rate of ALDH (+)/the growth rate of ALDH (−) is less than 0.8) | 0.34

Structure (SMILES) | Excitation wavelength λex [4] [nm] | Fluorescence wavelength λem [4] [nm] | Cancer cell growth rate (%) [1] [%] | Evaluation (cancer cell growth rate) [1] | ALDH(+) Superiority evaluation ([2]; K562, 1 μg/ml) | ALDH(+)/ALDH(−) ([2]; K562, 1 μg/ml) | Cancer cell growth rate (%) [3] [%] | Evaluation (cancer cell growth rate) [3] | ALDH(+) Superiority evaluation ([2]; K562, 10 μg/ml) | ALDH(+)/ALDH(−) ([2]; K562, 10 μg/ml)
CCN1/C(=C\C=C\c2ccc3ccccc3[n+]2CC)C=Cc2ccccc21.[I-] [Compound 47] | 615 | 637 | 13.8 | A (Cancer cell growth rate is less than 20%) |  |  | 8.6 | A (Cancer cell growth rate is less than 20%) |  | 
